Measured values from ChEMBL document CHEMBL1142385, “Nitro as a novel zinc-binding group in the inhibition of carboxypeptidase A” (Bioorg Med Chem, 2008).

These molecules were tested against T1, Carboxypeptidase A1 (Homo sapiens, UniProt P15085) (assay: Inhibition of CPA).
T1 sequence (P15085 whole entry): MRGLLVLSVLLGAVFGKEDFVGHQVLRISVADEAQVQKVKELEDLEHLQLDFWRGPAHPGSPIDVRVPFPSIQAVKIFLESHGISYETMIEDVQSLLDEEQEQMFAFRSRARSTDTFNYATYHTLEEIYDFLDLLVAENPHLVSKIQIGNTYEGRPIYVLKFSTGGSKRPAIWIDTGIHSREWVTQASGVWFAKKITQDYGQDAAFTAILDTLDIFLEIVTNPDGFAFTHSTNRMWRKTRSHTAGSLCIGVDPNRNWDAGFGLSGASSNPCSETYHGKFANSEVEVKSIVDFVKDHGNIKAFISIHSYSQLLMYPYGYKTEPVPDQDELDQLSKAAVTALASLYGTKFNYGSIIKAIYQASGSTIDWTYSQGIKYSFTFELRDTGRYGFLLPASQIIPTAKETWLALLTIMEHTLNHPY

Row | SMILES | Ki [nM]
1 | C=CCC(C[N+](=O)[O-])C(=O)O (racemic) | 62600
2 | CC(C)CC(C[N+](=O)[O-])C(=O)O (racemic) | 2080
3 | O=C(O)[C@@H](Cc1ccccc1)C[N+](=O)[O-] | 68000
4 | O=C(O)C(Cc1ccccc1)C[N+](=O)[O-] (racemic) | 790
5 | O=C(O)C[C@@H](Cc1ccccc1)C(=O)O | 450
